Experimental data: publication PMC12189931, “In Vitro Effects of Some Antibiotics on Purified β-Glucosidases from Rat Liver and Kidney Tissues” (Antibiotics, 2025)
“And” between values parts separate entries of the source, which are not always exact repeats. Equal values may be shown once. “Also recorded” adds a separate entry of the source.

Assays:
rat kidney BGL = molecular target: T1, rat kidney BGL (Rattus norvegicus, UniProt A0A0G2JVP8); assay: In vitro inhibition of β-glucosidase purified from rat kidney (p-NPG substrate); type: biochemical; conditions: for Ki / inhibition type / IC50: Kidney BGL; for Ki: Lineweaver–Burk plots; for inhibition type: Lineweaver–Burk, NI: No observed inhibition; for IC50: p-NPG 1.75 mM, GraphPad Prism; for effect on rat kidney BGL activity: tested concentration ranges 5–250 mM depending on antibiotic
T1 construct: For this purpose, BGLs were purified from rat liver and kidney tissues; from tissue; host or cells: rat kidney
T1 sequence (A0A0G2JVP8 1-469): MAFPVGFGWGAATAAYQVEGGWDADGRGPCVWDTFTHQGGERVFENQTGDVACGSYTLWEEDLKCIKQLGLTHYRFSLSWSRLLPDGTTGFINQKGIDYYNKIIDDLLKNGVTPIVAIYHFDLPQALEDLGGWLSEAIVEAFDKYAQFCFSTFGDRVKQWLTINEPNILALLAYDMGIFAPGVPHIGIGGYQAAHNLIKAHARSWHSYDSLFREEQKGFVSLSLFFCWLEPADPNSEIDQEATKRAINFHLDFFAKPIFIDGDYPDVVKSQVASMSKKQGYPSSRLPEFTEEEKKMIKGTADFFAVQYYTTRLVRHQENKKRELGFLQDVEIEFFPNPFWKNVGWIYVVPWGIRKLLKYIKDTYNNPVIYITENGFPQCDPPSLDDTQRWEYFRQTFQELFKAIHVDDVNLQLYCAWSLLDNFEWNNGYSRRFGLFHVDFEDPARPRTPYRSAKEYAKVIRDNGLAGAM
Description: (§1) Rat liver and kidney BGL activities were determined spectrophotometrically using a ThermoFisher Scientific Multiskan™ FC microplate (Thermo Fisher Scientific, Waltham, MA, USA). p-NPG dissolved in 50 mM of pH 5.5 Na–Ac buffer was used as the substrate. In this method, enzyme activity was determined by photometrically measuring the determination of p-nitrophenol (p-NP) released in the presence of BGLs spectrophotometrically at 405 nm. Calculations were made with the standard curve of p-NP (Cat. No. 241326, Sigma) prepared at 405 nm. One enzyme unit (EU) was defined as the amount of μmol p-nitrophenol released per minute in the reaction medium under the specified experimental conditions.
(§2) The half-maximal inhibitory concentration (IC50) of antibiotics was determined using a constant concentration of p-NPG of 1.75 mM. At least ten different concentration ranges of each antibiotic were tested to evaluate the in vitro effects of ampicillin (5–250 mM), amoxicillin–clavulanate (5–70 mM), cefuroxime (5–150 mM), cefazolin sodium (10–165 mM), ceftriaxone (10–160 mM), and gentamicin (5–50 mM). Enzyme activity was measured in the presence of different antibiotic concentrations, and BGL activity in the medium without antibiotics, which was accepted as the control group, was determined as 100% reference value. Enzyme activity results were expressed as % activity and the inhibitory concentration (IC50) that reduced enzyme activity by 50% was calculated using GraphPad Prism software. All experiments were performed in three replicates for each antibiotic concentration.
(§3) Lineweaver–Burk double-reciprocal plots were used to determine the inhibitory effect of antibiotics and the inhibition mechanisms. The curve obtained when there was no inhibitor in the reaction medium was accepted as the control (I0); the intersection points of the control curve with the lines drawn in the presence of the inhibitor at two different concentrations were analyzed. In line with these intersection points, the relevant inhibition types were determined, and the inhibitory constants (Ki) of the inhibitors were calculated.

rat liver BGL = molecular target: T2, rat liver BGL (Rattus norvegicus, UniProt A0A0G2JVP8); assay: In vitro inhibition of β-glucosidase purified from rat liver (p-NPG substrate); type: biochemical; conditions: for effect on rat liver BGL activity: tested concentration ranges 5–250 mM depending on antibiotic
T2 construct: For this purpose, BGLs were purified from rat liver and kidney tissues; from tissue; host or cells: rat liver
T2 sequence (A0A0G2JVP8 1-469): T1 sequence (A0A0G2JVP8 1-469)
Description: as §1, §2, §3

[1] = system: glucose-6-phosphate dehydrogenase (G6PD) purified from human erythrocytes; parameters: method as in PMID 10712835; conditions: cited from earlier work; for IC50: G6PD purified from human erythrocytes
[2] = system: glutathione reductase (GR) purified from mouse kidney tissue; parameters: method as in PMID 32196862; conditions: cited from earlier work
[3] = system: glutathione reductase (GR) purified from mouse liver; parameters: method as in PMID 32196862; conditions: cited from earlier work
[4] = system: glutathione reductase (GR) purified from rat lung tissue; parameters: method as in PMID 26758606; conditions: cited from earlier work
[5] = system: 6-phosphogluconate dehydrogenase (6PGD) purified from rat lung tissue; parameters: method as in PMID 26758606; conditions: cited from earlier work
[6] = system: glucose-6-phosphate dehydrogenase (G6PD) purified from rat lung tissue; parameters: method as in PMID 26758606; conditions: cited from earlier work
[7] = system: glutathione reductase (GR) purified from human erythrocytes; parameters: method as in PMID 15895687; conditions: cited from earlier work
[8] = system: G6PD purified from sheep erythrocytes; parameters: method as in PMID 12530481; conditions: cited from earlier work

Compound: CC1(C)S[C@@H]2[C@H](NC(=O)[C@H](N)c3ccccc3)C(=O)N2[C@H]1C(=O)O [Ampicillin]
- Ki (rat kidney BGL): 28.4 ± 6.35 mM
- inhibition type (rat kidney BGL): noncompetitively; also recorded: Noncompetitive
- IC50 (rat kidney BGL): 25 mM and 25.3 mM
- loss in liver BGL activity (rat liver BGL; 40 mM ampicillin in the medium): 10%
- Ki (rat liver BGL; Liver BGL, Lineweaver–Burk plots): 14.3 ± 3.35 mM
- inhibition type (rat liver BGL; Liver BGL, Lineweaver–Burk, NI: No observed inhibition): competitively; also recorded: Competitive
- IC50 (rat liver BGL; Liver BGL, p-NPG 1.75 mM, GraphPad Prism): 70 mM and 69.6 mM

Compound: Cc1nnc(SCC2=C(C(=O)O)N3C(=O)[C@@H](NC(=O)Cn4cnnn4)[C@H]3SC2)s1 [Cefazolin sodium]
- inhibition type ([1]; human erythrocyte G6PD): noncompetitive
- inhibition type (rat kidney BGL): Noncompetitive
- inhibition type (rat kidney BGL; listed as cefazolin sodium): noncompetitively
- IC50 (rat kidney BGL): 98.8 mM
- effect on rat liver BGL activity (rat liver BGL): did not show a significant inhibitory effect
- inhibition / inhibition type [2]: did not inhibit
- inhibition / inhibition type [3]: did not inhibit

Compound: CO/N=C(\C(=O)N[C@@H]1C(=O)N2C(C(=O)O)=C(CSc3nc(=O)c(=O)[nH]n3C)CS[C@H]12)c1csc(N)n1 [Ceftriaxone]
- effect on rat kidney BGL activity (rat kidney BGL): did not reduce kidney BGL activity; also recorded: did not significantly inhibit; also recorded: did not exhibit inhibitory effects
- effect on rat liver BGL activity (rat liver BGL): did not show a significant inhibitory effect

Compound: CO/N=C(\C(=O)N[C@@H]1C(=O)N2C(C(=O)O)=C(COC(N)=O)CS[C@H]12)c1ccco1 [Cefuroxime]
- Ki (rat kidney BGL): 18.7 ± 12.7 mM
- inhibition type (rat kidney BGL): Uncompetitive
- IC50 (rat kidney BGL): 76.9 mM
- effect on rat liver BGL activity (rat liver BGL): did not show a significant inhibitory effect
- inhibition type [4]: noncompetitively
- inhibition type [5]: noncompetitively
- inhibition type [6]: noncompetitively

Compound: CNC(C)C1CCC(N)C(OC2C(N)CC(N)C(OC3OCC(C)(O)C(NC)C3O)C2O)O1 (centres unmarked) [Gentamicin]
- effect on rat kidney BGL activity (rat kidney BGL): did not reduce kidney BGL activity
- effect on rat kidney BGL activity (rat kidney BGL; listed as gentamicin): did not significantly inhibit; also recorded: did not exhibit inhibitory effects; also recorded: no effect on enzyme activity
- effect on rat liver BGL activity (rat liver BGL; listed as gentamicin): did not show a significant inhibitory effect; also recorded: increased enzyme activity; also recorded: no inhibitory effect
- inhibition / inhibition type [2]: did not inhibit
- inhibition type [4]: competitively
- inhibition type [5]: competitively
- inhibition / inhibition type [3]: noncompetitive
- effect on enzyme activity [7]: increase the activity
- inhibition type [6]: competitively

Compound: CC1(C)S[C@@H]2[C@H](NC(=O)[C@H](N)c3ccc(O)cc3)C(=O)N2[C@H]1C(=O)O [amoxicillin]
- IC50 [2]: 86 mM
- inhibition / inhibition type [2]: noncompetitive
- inhibition / inhibition type [3]: competitive

Compound: CO/N=C(\C(=O)N[C@@H]1C(=O)N2C(C(=O)O)=C(COC(N)=O)CS[C@H]12)c1ccco1 [sodium cefuroxime]
- IC50 [1]: 6.7 mM

Compound: gentamicin sulfate
- IC50 [1]: 12 mM
- inhibition type [8]: noncompetitively
